Consider 10 molecules from ChEMBL document CHEMBL1201862, “PubChem BioAssay data set” (2004).

Test systems include A549; DU-145; U-251; IGROV-1; ACHN; HL-60; NCI-H226; SK-MEL-5; SK-OV-3; SN12C; COLO 205; TK-10; SK-MEL-28; K562; SF-539; HOP-62; 786-0; CCRF-CEM; A498; SW-620.
What all share (test): NCI anticancer screen, dose series, 48 h

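Where inhibition never reached the appropriate level, the endpoint shown equals the highest concentration tested. Otherwise, values were interpolated linearly from a five-concentration, 48-hour dose response in 96-well plates. Abbreviation: GI50, concentration required for 50% inhibition of growth.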 Calls of active or inactive are those of the source. No stated cut-off is given here; in the data, active = GI50 up to about 1.1 µM and inactive = higher. Where only a bound is given, the exact number is not on record here.

Regarding `Cc1ccc(CC(=O)Nc2ccc(NC(=O)/C=C/NC(=O)/C=C/c3ccc(-c4ccccc4)cc3)cc2C(=O)c2ccccc2)cc1`, the GI50 is 1.77 µM (inactive) in the assay with A549; 3.94 µM (inactive) in the assay with DU-145; 1.85 µM (inactive) in the assay with U-251; 0.975 µM (active) in the assay with IGROV-1; 3.08 µM (inactive) with ACHN; 16.9 µM (inactive) in the assay on HL-60. For the same molecule, the GI50 with NCI-H226 is 2.42 µM (inactive); in the assay on SK-MEL-5 it was 2.09 µM (inactive); with SK-OV-3, 1.85 µM (inactive); with SN12C it was 1.92 µM (inactive); with COLO 205, 1.75 µM (inactive); with TK-10 it was 2.78 µM (inactive). Moreover, the GI50 in the assay on SK-MEL-28 is 3.03 µM (inactive); with K562, 11.1 µM (inactive); in the assay with SF-539 it was 1.67 µM (inactive); in the assay on HOP-62 it was 2.11 µM (inactive); in the assay on 786-0, 1.6 µM (inactive); in the assay on CCRF-CEM it was 2.16 µM (inactive). The GI50 in the assay with A498 was 2.31 µM (inactive); in the assay on SW-620 it was 1.57 µM (inactive).
As for `NC(=O)NN=C1Cc2ccccc2C1`, the GI50 in the assay on A549, in the assay on DU-145, in the assay with U-251, in the assay with IGROV-1, with ACHN and in the assay with HL-60 was > 100 µM (inactive) in each case. Also, the GI50 with NCI-H226, with SK-MEL-5, in the assay on SK-OV-3, in the assay with SN12C, in the assay on COLO 205 and in the assay with TK-10 was > 100 µM (inactive) in each case. For the same molecule, the GI50 with SK-MEL-28, in the assay with K562, with SF-539, with HOP-62, in the assay with 786-0 and with CCRF-CEM was > 100 µM (inactive) throughout. Further, the GI50 in the assay with A498 and with SW-620 was > 100 µM (inactive) throughout.
With `CC12CC3(O)OC(O1)C1(COC(=O)c4ccccc4)C3CC21OC1OC(CO)C(O)C(O)C1O` (centres undefined), the GI50 in the assay with A549, with DU-145, in the assay with U-251, in the assay with IGROV-1, in the assay on ACHN and in the assay on HL-60 was > 100 µM (inactive) each time. Also, the GI50 in the assay on NCI-H226, in the assay with SK-MEL-5, with SK-OV-3, in the assay with SN12C, in the assay with COLO 205 and in the assay with TK-10 was > 100 µM (inactive) in each case. Further, the GI50 in the assay with SK-MEL-28, in the assay with SF-539, in the assay with HOP-62, with 786-0, with CCRF-CEM and in the assay on A498 was > 100 µM (inactive) throughout. Moreover, the GI50 in the assay with SW-620 was > 100 µM (inactive).
With `O=C1c2ccccc2C(=O)N1CCc1nc(-c2ccccc2)c[nH]1`, the GI50 in the assay with A549, in the assay on DU-145, in the assay with U-251, in the assay with IGROV-1, with ACHN and with HL-60 was > 100 µM (inactive) throughout. Further, the GI50 with NCI-H226, in the assay on SK-MEL-5, in the assay on SK-OV-3, in the assay with SN12C, with COLO 205 and in the assay with TK-10 was > 100 µM (inactive) throughout. Besides, the GI50 in the assay with SK-MEL-28, in the assay with K562, in the assay on SF-539, in the assay with HOP-62, in the assay on 786-0 and with CCRF-CEM was > 100 µM (inactive) in each case. The GI50 with A498 and with SW-620 was > 100 µM (inactive) throughout.
With `O=C1C(NCCF)=C(Cl)C(=O)c2ncccc21`, the GI50 in the assay on A549 was 1.73 µM (inactive); with DU-145 it was 1.11 µM (active); in the assay on U-251, 0.689 µM (active); in the assay with IGROV-1, 1.39 µM (inactive); in the assay on ACHN, 1.53 µM (inactive); in the assay on HL-60 it was 0.413 µM (active). Moreover, the GI50 was 1.71 µM (inactive) with NCI-H226; 0.145 µM (active) in the assay with SK-MEL-5; 1.77 µM (inactive) in the assay with SK-OV-3; 1.02 µM (active) with SN12C; 1.81 µM (inactive) in the assay with TK-10; 0.701 µM (active) in the assay on SK-MEL-28. Besides, the GI50 with K562 was 0.206 µM (active); in the assay on SF-539, 1 µM (active); in the assay on HOP-62, 1.47 µM (inactive); in the assay on 786-0 it was 1.19 µM (inactive); in the assay with CCRF-CEM, 0.204 µM (active); in the assay on A498, 1.63 µM (inactive). Moreover, the GI50 in the assay on SW-620 is 0.378 µM (active).
For `CN1CCc2c(sc3ncn(C)c(=N)c23)C1`, the GI50 with A549, with DU-145, in the assay on U-251, in the assay on IGROV-1, in the assay on ACHN and in the assay on HL-60 was > 100 µM (inactive) each time. Further, the GI50 in the assay on NCI-H226, in the assay on SK-MEL-5, in the assay on SK-OV-3, with SN12C, in the assay on COLO 205 and in the assay on TK-10 was > 100 µM (inactive) in each case. The GI50 with SK-MEL-28, with K562, in the assay with SF-539, with HOP-62, in the assay with 786-0 and with CCRF-CEM was > 100 µM (inactive) each time. In addition, the GI50 in the assay with A498 and with SW-620 was > 100 µM (inactive) each time.
For the molecule `O=C(c1ccc(Cl)c(Cl)c1)N(C(=O)N1CCN(c2ccccc2)CC1)S(=O)(=O)c1ccccc1`, the GI50 with A549 was > 100 µM (inactive); with DU-145 it was > 100 µM (inactive); in the assay with U-251 it was 25.5 µM (inactive); in the assay on ACHN it was 97.1 µM (inactive); in the assay on HL-60, > 100 µM (inactive); in the assay with NCI-H226 it was 24.2 µM (inactive). For the same molecule, the GI50 in the assay on SK-MEL-5 was 28.2 µM (inactive); in the assay with SK-OV-3, 27 µM (inactive); in the assay on SN12C, 36.1 µM (inactive); with COLO 205, > 100 µM (inactive); in the assay on TK-10 it was > 100 µM (inactive); with SK-MEL-28 it was > 100 µM (inactive). Besides, the GI50 in the assay on K562 is 22.9 µM (inactive); in the assay with SF-539, 41.2 µM (inactive); in the assay on HOP-62, 31.6 µM (inactive); in the assay with 786-0 it was 35.6 µM (inactive); in the assay on CCRF-CEM, 19 µM (inactive); in the assay with A498, > 100 µM (inactive). Also, the GI50 with SW-620 was 36.1 µM (inactive).
Take `Cc1cnc2[nH]c(-c3cccc(Cl)c3)cc(=O)c2c1`: the GI50 was 0.0676 µM (active) with A549; 0.154 µM (active) in the assay with DU-145; 0.0484 µM (active) in the assay on U-251; 0.292 µM (active) in the assay on IGROV-1; 0.507 µM (active) with ACHN; < 0.0176 µM (active) in the assay with HL-60. Further, the GI50 in the assay with NCI-H226 was 0.0708 µM (active); in the assay on SK-MEL-5, 0.0461 µM (active); in the assay on SK-OV-3 it was 0.0508 µM (active); in the assay with COLO 205 it was 0.0807 µM (active); with TK-10 it was 22.8 µM (inactive); in the assay with SK-MEL-28, 0.315 µM (active). The GI50 is < 0.0151 µM (active) with K562; 0.0194 µM (active) with SF-539; 0.0282 µM (active) in the assay with HOP-62; 0.0547 µM (active) with 786-0; 0.0425 µM (active) in the assay with CCRF-CEM; 0.0556 µM (active) in the assay with A498. Besides, the GI50 in the assay on SW-620 is 0.0119 µM (active).
`Cc1nn(C(=O)Cc2ccccc2)c2c1C(c1ccccc1[N+](=O)[O-])SC(=N)N2` (centres undefined): the GI50 with A549, in the assay with DU-145, in the assay with IGROV-1, in the assay on ACHN, with HL-60 and with NCI-H226 was > 100 µM (inactive) throughout. In addition, the GI50 in the assay on SK-MEL-5, with SK-OV-3, with SN12C, in the assay on COLO 205, with TK-10 and in the assay with SK-MEL-28 was > 100 µM (inactive) in each case. Moreover, the GI50 with K562, in the assay with SF-539, in the assay on HOP-62, in the assay with 786-0, in the assay on CCRF-CEM and in the assay on A498 was > 100 µM (inactive) each time. For the same molecule, in the assay with SW-620, the GI50 is > 100 µM (inactive).
For the molecule `NS(=O)(=O)c1ccc(NC(=O)c2cc([N+](=O)[O-])cc([N+](=O)[O-])c2)cc1`, the GI50 in the assay on A549 was 42.6 µM (inactive); in the assay with DU-145 it was 59.7 µM (inactive); in the assay on U-251 it was 37.8 µM (inactive); with IGROV-1, 23.6 µM (inactive); in the assay on HL-60, 32.1 µM (inactive); in the assay on NCI-H226 it was 46.5 µM (inactive). For the same molecule, the GI50 in the assay on SK-MEL-5 is 38.7 µM (inactive); with SK-OV-3, 80.4 µM (inactive); in the assay on SN12C it was 21.7 µM (inactive); in the assay on COLO 205 it was 19.7 µM (inactive); in the assay with TK-10, > 100 µM (inactive); in the assay on SK-MEL-28, > 100 µM (inactive). The GI50 in the assay with K562 was 43.7 µM (inactive); in the assay with SF-539 it was 30.7 µM (inactive); in the assay with HOP-62 it was > 100 µM (inactive); in the assay on 786-0 it was 76.2 µM (inactive); in the assay with CCRF-CEM, 28.8 µM (inactive); with A498, 65.2 µM (inactive). In addition, the GI50 in the assay with SW-620 was 66.4 µM (inactive).
